Assay results: ChEMBL document CHEMBL4038307, “Influence of a Basic Side Chain on the Properties of Hypoxia-Selective Nitro Analogues of the Duocarmycins: Demonstration of Substantial Anticancer Activity in Combination with Irradiation or Chemotherapy” (J Med Chem, 2017)
Activity calls are given as the source filed them. No cut-off for these calls is given here.

Tests used:
CWR22R [1] = experiment: Antitumor activity against human 22Rv1 cells xenografted in CD-1 Foxn1 nude mouse assessed as tumor stasis at 32 umol/kg, ip once in every two weeks after 100 to 120 days; format: functional, organism-based
CWR22R [2] = experiment: Antitumor activity against human 22Rv1 cells xenografted in CD-1 Foxn1 nude mouse assessed as median tumor growth delay time at 32 umol/kg, ip once in every two weeks after 100 to 120 days; format: functional
Mus musculus [3] = experiment: Toxicity in CD-1 Foxn1 nude mouse xenografted with human 22Rv1 cells assessed as change in body weight at 32 umol/kg, ip once in every two weeks after 100 to 120 days; format: organism-based; details: in vivo
A2780 [4] = experiment: Antitumor activity against human A2780 cells xenografted in CD-1 Foxn1 nude mouse assessed as tumor regression at 42 to 56 umol/kg, iv after 100 days; format: functional, organism-based
SiHa [5] = experiment: Antitumor activity against human SiHa cells xenografted in CD-1 Foxn1 nude mouse assessed as log reduction in colony forming cells under hypoxic condition at 42 umol/kg, iv treated 5 mins after gamma irradiation measured after 18 hrs by excision assay; format: functional
NCI-H460 = experiment: Antitumor activity against human H460 cells xenografted in CD-1 Foxn1 nude mouse assessed as reduction in colony forming cells under hypoxic condition at 75 umol/kg, iv treated 5 mins after gamma irradiation measured after 18 hrs by excision assay; format: functional, organism-based
NCI-H1299 = experiment: Antitumor activity against human H1299 cells xenografted in CD-1 Foxn1 nude mouse assessed as reduction in colony forming cells at 75 umol/kg, iv treated 5 mins after gamma irradiation measured after 18 hrs by excision assay; format: functional, organism-based
HCT-116 = experiment: Antitumor activity against human HCT116 cells xenografted in CD-1 Foxn1 nude mouse assessed as reduction in colony forming cells at 56 umol/kg, iv treated 5 mins after gamma irradiation measured after 18 hrs by excision assay; format: functional, organism-based
CWR22R [6] = experiment: Antitumor activity against human 22Rv1 cells xenografted in CD-1 Foxn1 nude mouse assessed as reduction in colony forming cells under hypoxic condition at 30 umol/kg, iv treated 5 mins after gamma irradiation measured after 18 hrs by excision assay; format: functional, organism-based
SiHa [7] = experiment: Antitumor activity against human SiHa cells xenografted in CD-1 Foxn1 nude mouse assessed as tumor regression at 42 to 56 umol/kg, iv after more than 100 days in presence of gemcitabine; format: functional, organism-based
Mus musculus [8] = experiment: Toxicity in CD-1 Foxn1 nude mouse xenografted with human SiHa cells assessed as body weight change at 42 to 56 umol/kg, iv after 100 to 120 days in presence of gemcitabine; format: organism-based; details: in vivo
SiHa [9] = experiment: Antitumor activity against human SiHa cells xenografted in CD-1 Foxn1 nude mouse assessed as tumor regression at 42 to 56 umol/kg, iv after more than 100 days; format: functional, organism-based
A2780 [10] = experiment: Antitumor activity against human A2780 cells xenografted in CD-1 Foxn1 nude mouse assessed as tumor regression at 42 to 56 umol/kg, iv after 8 to 23 days in presence of gemcitabine; format: functional, organism-based
A2780 [11] = experiment: Antitumor activity against human A2780 cells xenografted in CD-1 Foxn1 nude mouse assessed as tumor regression at 42 to 56 umol/kg, iv after 100 days in presence of gemcitabine; format: functional, organism-based
Mus musculus [12] = experiment: Toxicity in CD-1 Foxn1 nude mouse xenografted with human SiHa cells assessed as sporadic acute toxicity at 42 to 56 umol/kg, iv; details: in vivo
SiHa [13] = experiment: Antitumor activity against human SiHa cells xenografted in CD-1 Foxn1 nude mouse assessed as tumor regrowth at 237 umol/kg, ip four times for every three days after 100 to 120 days; format: functional, organism-based
Mus musculus [14] = experiment: Toxicity in CD-1 Foxn1 nude mouse xenografted with human SiHa cells assessed as lose in body weight at 133 umol/kg, ip four times for every three days after 100 to 120 days; format: organism-based; details: in vivo
A2780 [15] = experiment: Antitumor activity against human A2780 cells xenografted in CD-1 Foxn1 nude mouse assessed as delay in tumor growth at 100 umol/kg, ip four times for every three days after 100 to 120 days; format: functional, organism-based
A2780 [16] = experiment: Antitumor activity against human A2780 cells xenografted in CD-1 Foxn1 nude mouse assessed as tumor regression at 133 umol/kg, ip four times for every three days after 100 to 120 days; format: functional, organism-based
A2780 [17] = experiment: Antitumor activity against human A2780 cells xenografted in CD-1 Foxn1 nude mouse assessed as median tumor growth delay time at 15 umol/kg, iv after 100 to 120 days in presence of gemcitabine; format: functional
A2780 [18] = experiment: Antitumor activity against human A2780 cells xenografted in CD-1 Foxn1 nude mouse assessed as tumor regrowth at 15 umol/kg, iv after 100 to 120 days; format: functional, organism-based
Mus musculus [19] = experiment: Toxicity in CD-1 Foxn1 nude mouse xenografted with human A2780 cells assessed as change in body weight at 15 umol/kg, iv after 100 to 120 days in presence of gemcitabine; format: organism-based; details: in vivo
Mus musculus [20] = experiment: Toxicity in CD-1 Foxn1 nude mouse xenografted with human A2780 cells at 15 umol/kg, iv after 100 to 120 days in presence of gemcitabine; format: organism-based; details: in vivo
CWR22R [21] = experiment: Antitumor activity against human 22Rv1 cells xenografted in CD-1 Foxn1 nude mouse assessed as tumor regrowth at 14 umol/kg, iv after 100 to 120 days; format: functional, organism-based
CWR22R [22] = experiment: Antitumor activity against human 22Rv1 cells xenografted in CD-1 Foxn1 nude mouse assessed as tumor regression at 14 umol/kg, iv after 100 to 120 days in presence of docetaxel; format: functional, organism-based
CWR22R [23] = experiment: Antitumor activity against human 22Rv1 cells xenografted in CD-1 Foxn1 nude mouse assessed as median tumor growth delay time at 15 umol/kg, iv after 100 to 120 days in presence of docetaxel; format: functional
Mus musculus [24] = experiment: Toxicity in CD-1 Foxn1 nude mouse xenografted with human 22Rv1 cells assessed as change in body weight at 14 umol/kg, ip; details: in vivo
Mus musculus [25] = experiment: Toxicity in CD-1 Foxn1 nude mouse xenografted with human 22Rv1 cells at 14 umol/kg, ip; details: in vivo

In the case of `CC(=O)O[C@@]12CO[C@@H]1C[C@H](O)[C@@]1(C)C(=O)[C@H](O)C3=C(C)[C@@H](OC(=O)[C@H](O)[C@@H](NC(=O)OC(C)(C)C)c4ccccc4)C[C@@](O)([C@@H](OC(=O)c4ccccc4)[C@H]21)C3(C)C` [DOCETAXEL ANHYDROUS], the Activity (CWR22R [1]) is reported as “inactive”, the Time (CWR22R [2]) is reported as 13 days and the Activity (Mus musculus [3]) is reported as “Toxic”.
`CN(C)CCOc1ccc2[nH]c(C(=O)N3CC(CCl)c4c3cc([N+](=O)[O-])c3cc(S(=O)(=O)NCCOP(=O)(O)O)ccc43)cc2c1` (stereo not drawn) was tested, and the Activity (A2780 [4]) was “inactive”, the Activity (SiHa [5]) was “Active” and the Activity (NCI-H460) was “Active”. For the same compound, the Activity (NCI-H1299) was “Active”, the Activity (HCT-116) was “Active” and the Activity (CWR22R [6]) was “Active”. For the same compound, the Activity (SiHa [7]) was “Active”, the Activity (Mus musculus [8]) was “Non-Toxic” and the Activity (SiHa [9]) was “Active”. For the same compound, the Activity (A2780 [10]) was “Active”, the Activity (A2780 [11]) was “Active” and the Activity (Mus musculus [12]) was “Toxic”.
`Nc1ccn([C@@H]2O[C@H](CO)[C@@H](O)C2(F)F)c(=O)n1` [GEMCITABINE] was tested, and the Activity (SiHa [13]) was “Active”, the Activity (Mus musculus [14]) was 5% and the Activity (A2780 [15]) was “Active”. For the same compound, the Activity (A2780 [16]) was “Active”.
With `Nc1cc2c(c3ccc(S(=O)(=O)NCCOP(=O)(O)O)cc13)C(CCl)CN2C(=O)c1cc2cc(OCCN3CCOCC3)ccc2[nH]1` (stereo not drawn) the Activity (SiHa [5]) was >1, the Activity (NCI-H460) was “Active” and the Activity (NCI-H1299) was “Active”. The Activity (HCT-116) was “Active”, the Activity (CWR22R [6]) was “Active” and the Time (A2780 [17]) was 14 days. For the same compound, the Activity (A2780 [18]) was “inactive”, the Activity (Mus musculus [19]) was “Non-Toxic” and the Activity (Mus musculus [20]) was “Non-Toxic”. The Activity (CWR22R [21]) was “inactive”, the Activity (CWR22R [22]) was “Active” and the Time (CWR22R [23]) was 17 days. The Activity (Mus musculus [24]) was “Non-Toxic” and the Activity (Mus musculus [25]) was “Non-Toxic”.
